{"source": "patent US10125150B2", "about": "“Crystalline forms of a PI3K inhibitor” (Incyte Corporation, priority 2015, dated 2018)", "key": {"[1]": {"target": "human JAK1 (a.a. 837-1142) (Homo sapiens, UniProt P23458)", "assay": "In vitro JAK kinase assay (Example D), JAK1", "type": "biochemical", "conditions": "1 mM ATP"}, "JAK2 (a.a. 828-1132)": {"target": "JAK2 (a.a. 828-1132) (Homo sapiens (Human), UniProt O60674)", "sequence (O60674 828-1132)": "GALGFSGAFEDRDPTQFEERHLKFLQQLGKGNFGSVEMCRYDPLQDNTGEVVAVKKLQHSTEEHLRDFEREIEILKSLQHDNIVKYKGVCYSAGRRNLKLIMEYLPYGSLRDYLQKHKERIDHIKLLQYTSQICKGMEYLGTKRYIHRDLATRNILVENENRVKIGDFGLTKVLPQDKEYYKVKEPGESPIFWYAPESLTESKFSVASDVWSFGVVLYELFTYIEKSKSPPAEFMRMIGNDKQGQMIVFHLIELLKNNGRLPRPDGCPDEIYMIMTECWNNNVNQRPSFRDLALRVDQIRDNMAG", "assay": "In vitro JAK kinase assay (Example D), JAK2", "type": "biochemical", "conditions": "ratio JAK2/JAK1 of IC50s, 1 mM ATP"}}, "data": [{"smiles": "N#CC[C@]1(n2cc(-c3ncnc4[nH]ccc34)cn2)C[C@H](N2CCC(Oc3cc(CN4CCC[C@@H]4CO)cc(C(F)(F)F)n3)CC2)C1", "note": "[Form 13, {trans-3-(4-{[4-{[(2R)-2-(hydroxymethyl)pyrrolidin-1-yl]methyl}-6-(trifluoromethyl)pyridin-2-yl]oxy}piperidin-1-yl)-1-[4-(7H-pyrrolo[2,3-d]pyrimidin-4-yl)-1H-pyrazol-1-yl]cyclobutyl}acetonitrile]", "values": [{"measurement": "IC50", "setting": "[1]", "value": "< 0.01", "unit": "µM"}, {"measurement": "JAK2/JAK1", "setting": "JAK2 (a.a. 828-1132)", "value": ">10"}]}, {"smiles": "N#CCC(C1CCN(c2cccc(Cl)n2)C1)n1cc(-c2ncnc3[nH]ccc23)cn1", "note": "(single isomer, unassigned) [Form 3, 3-[1-(6-chloropyridin-2-yl)pyrrolidin-3-yl]-3-[4-(7H-pyrrolo[2,3-d]pyrimidin-4-yl)-1H-pyrazol-1-yl]propanenitrile]", "values": [{"measurement": "IC50", "setting": "[1]", "value": "< 0.01", "unit": "µM"}, {"measurement": "JAK2/JAK1", "setting": "JAK2 (a.a. 828-1132)", "value": ">10"}]}, {"smiles": "N#CCC1(n2cc(-c3ncnc4[nH]ccc34)cn2)CN([C@H]2CC[C@@H](Oc3cc(CCO)nc(C(F)(F)F)n3)CC2)C1", "note": "[Form 18, {1-(cis-4-{[6-(2-hydroxyethyl)-2-(trifluoromethyl)pyrimidin-4-yl]oxy}cyclohexyl)-3-[4-(7H-pyrrolo[2,3-d]pyrimidin-4-yl)-1H-pyrazol-1-yl]azetidin-3-yl}acetonitrile]", "values": [{"measurement": "IC50", "setting": "[1]", "value": "< 0.01", "unit": "µM"}, {"measurement": "JAK2/JAK1", "setting": "JAK2 (a.a. 828-1132)", "value": ">10"}]}, {"smiles": "N#CCC1(n2cc(-c3ncnc4[nH]ccc34)cn2)CN(C2CCN(C(=O)Nc3ccc(F)cc3C(F)(F)F)CC2)C1", "note": "[Form 8, 4-{3-(Cyanomethyl)-3-[4-(7H-pyrrolo[2,3-d]pyrimidin-4-yl)-1H-pyrazol-1-yl]azetidin-1-yl}-N-[4-fluoro-2-(trifluoromethyl)phenyl]piperidine-1-carboxamide]", "values": [{"measurement": "IC50", "setting": "[1]", "value": "< 0.01", "unit": "µM"}, {"measurement": "JAK2/JAK1", "setting": "JAK2 (a.a. 828-1132)", "value": ">10"}]}, {"smiles": "C[C@@H](CO)NCc1cc(OC2CCN([C@H]3C[C@](CC#N)(n4cc(-c5ncnc6[nH]ccc56)cn4)C3)CC2)nc(C(F)(F)F)c1", "note": "[Form 23, {trans-3-(4-{[4-({[(1S)-2-hydroxy-1-methylethyl]amino}methyl)-6-(trifluoromethyl)pyridin-2-yl]oxy}piperidin-1-yl)-1-[4-(7H-pyrrolo[2,3-d]pyrimidin-4-yl)-1H-pyrazol-1-yl]cyclobutyl}acetonitrile]", "values": [{"measurement": "IC50", "setting": "[1]", "value": "< 0.01", "unit": "µM"}, {"measurement": "JAK2/JAK1", "setting": "JAK2 (a.a. 828-1132)", "value": ">10"}]}, {"smiles": "C[C@@H](O)c1nc2cnc3ccsc3c2n1[C@H]1CC[C@H](CC#N)OC1", "note": "[Form 1, ((2R,5S)-5-{2-[(1R)-1-hydroxyethyl]-1H-imidazo[4,5-d]thieno[3,2-b]pyridin-1-yl}tetrahydro-2H-pyran-2-yl)acetonitrile]", "values": [{"measurement": "IC50", "setting": "[1]", "value": "< 0.1", "unit": "µM"}, {"measurement": "JAK2/JAK1", "setting": "JAK2 (a.a. 828-1132)", "value": ">10"}]}, {"smiles": "N#CCC(CN1CCN(C(=O)c2ccc(C#N)cc2F)CC1)n1ccc(-c2ncnc3[nH]ccc23)c1", "note": "(centres unmarked) [Form 6, 4-[(4-{3-cyano-2-[3-(7H-pyrrolo[2,3-d]pyrimidin-4-yl)-1H-pyrrol-1-yl]propyl}piperazin-1-yl)carbonyl]-3-fluorobenzonitrile]", "values": [{"measurement": "IC50", "setting": "[1]", "value": "< 0.01", "unit": "µM"}, {"measurement": "JAK2/JAK1", "setting": "JAK2 (a.a. 828-1132)", "value": ">10"}]}, {"smiles": "N#CCC1(n2cc(-c3ncnc4[nH]ccc34)cn2)CN(C2CCN(C(=O)c3ccnc(C(F)(F)F)n3)CC2)C1", "note": "[Form 9, [3-[4-(7H-pyrrolo[2,3-d]pyrimidin-4-yl)-1H-pyrazol-1-yl]-1-(1-{[2-(trifluoromethyl)pyrimidin-4-yl]carbonyl}piperidin-4-yl)azetidin-3-yl]acetonitrile]", "values": [{"measurement": "IC50", "setting": "[1]", "value": "< 0.01", "unit": "µM"}, {"measurement": "JAK2/JAK1", "setting": "JAK2 (a.a. 828-1132)", "value": ">10"}]}, {"smiles": "N#CC[C@]1(n2cc(-c3ncnc4[nH]ccc34)cn2)C[C@H](N2CCN(C(=O)c3ccnc(C(F)(F)F)n3)CC2)C1", "note": "[Form 10, [trans-1-[4-(7H-pyrrolo[2,3-d]pyrimidin-4-yl)-1H-pyrazol-1-yl]-3-(4-{[2-(trifluoromethyl)pyrimidin-4-yl]carbonyl}piperazin-1-yl)cyclobutyl]acetonitrile]", "values": [{"measurement": "IC50", "setting": "[1]", "value": "< 0.01", "unit": "µM"}, {"measurement": "JAK2/JAK1", "setting": "JAK2 (a.a. 828-1132)", "value": ">10"}]}, {"smiles": "N#CCC1(n2cc(-c3ncnc4[nH]ccc34)cn2)CN(C2CCN(C(=O)c3ccnc(C(F)(F)F)c3F)CC2)C1", "note": "[Form 7, {1-{1-[3-Fluoro-2-(trifluoromethyl)isonicotinoyl]piperidin-4-yl}-3-[4-(7H-pyrrolo[2,3-d]pyrimidin-4-yl)-1H-pyrazol-1-yl]azetidin-3-yl}acetonitrile]", "values": [{"measurement": "IC50", "setting": "[1]", "value": "< 0.01", "unit": "µM"}, {"measurement": "JAK2/JAK1", "setting": "JAK2 (a.a. 828-1132)", "value": ">10"}]}, {"smiles": "N#CCC1(n2cc(-c3ncnc4[nH]ccc34)cn2)CN([C@H]2CC[C@@H](Oc3cc(CN4CC[C@H](O)C4)cc(C(F)(F)F)n3)CC2)C1", "note": "[Form 22, {1-(cis-4-{[4-{[(3S)-3-hydroxypyrrolidin-1-yl]methyl}-6-(trifluoromethyl)pyridin-2-yl]oxy}cyclohexyl)-3-[4-(7H-pyrrolo[2,3-d]pyrimidin-4-yl)-1H-pyrazol-1-yl]azetidin-3-yl}acetonitrile]", "values": [{"measurement": "IC50", "setting": "[1]", "value": "< 0.01", "unit": "µM"}, {"measurement": "JAK2/JAK1", "setting": "JAK2 (a.a. 828-1132)", "value": ">10"}]}, {"smiles": "N#CCC(CN1CCN(C(=O)c2ccc(C#N)cc2F)CC1)n1cc(-c2ncnc3[nH]ccc23)cn1", "note": "(centres unmarked) [Form 5, 4-[(4-{3-cyano-2-[4-(7H-pyrrolo[2,3-d]pyrimidin-4-yl)-1H-pyrazol-1-yl]propyl}piperazin-1-yl)carbonyl]-3-fluorobenzonitrile]", "values": [{"measurement": "IC50", "setting": "[1]", "value": "< 0.01", "unit": "µM"}, {"measurement": "JAK2/JAK1", "setting": "JAK2 (a.a. 828-1132)", "value": ">10"}]}, {"smiles": "N#CCC1(n2cc(-c3ncnc4[nH]ccc34)cn2)CN([C@H]2CC[C@@H](Oc3cc(CN4CC[C@@H](O)C4)cc(C(F)(F)F)n3)CC2)C1", "note": "[Form 21, {1-(cis-4-{[4-{[(3R)-3-hydroxypyrrolidin-1-yl]methyl}-6-(trifluoromethyl)pyridin-2-yl]oxy}cyclohexyl)-3-[4-(7H-pyrrolo[2,3-d]pyrimidin-4-yl)-1H-pyrazol-1-yl]azetidin-3-yl}acetonitrile]", "values": [{"measurement": "IC50", "setting": "[1]", "value": "< 0.01", "unit": "µM"}, {"measurement": "JAK2/JAK1", "setting": "JAK2 (a.a. 828-1132)", "value": ">10"}]}, {"smiles": "N#CCC(C1CCN(c2nc3cccnc3o2)C1)n1cc(-c2ncnc3[nH]ccc23)cn1", "note": "(centres unmarked) [Form 4, 3-(1-[1,3]oxazolo[5,4-b]pyridin-2-ylpyrrolidin-3-yl)-3-[4-(7H-pyrrolo[2,3-d]pyrimidin-4-yl)-1H-pyrazol-1-yl]propanenitrile]", "values": [{"measurement": "IC50", "setting": "[1]", "value": "< 0.01", "unit": "µM"}, {"measurement": "JAK2/JAK1", "setting": "JAK2 (a.a. 828-1132)", "value": ">10"}]}, {"smiles": "CCNCc1cc(O[C@H]2CC[C@@H](N3CC(CC#N)(n4cc(-c5ncnc6[nH]ccc56)cn4)C3)CC2)nc(C(F)(F)F)c1", "note": "[Form 19, {1-(cis-4-{[4-[(ethylamino)methyl]-6-(trifluoromethyl)pyridin-2-yl]oxy}cyclohexyl)-3-[4-(7H-pyrrolo[2,3-d]pyrimidin-4-yl)-1H-pyrazol-1-yl]azetidin-3-yl}acetonitrile]", "values": [{"measurement": "IC50", "setting": "[1]", "value": "< 0.01", "unit": "µM"}, {"measurement": "JAK2/JAK1", "setting": "JAK2 (a.a. 828-1132)", "value": ">10"}]}, {"smiles": "C[C@H](O)CNCc1cc(OC2CCN([C@H]3C[C@](CC#N)(n4cc(-c5ncnc6[nH]ccc56)cn4)C3)CC2)nc(C(F)(F)F)c1", "note": "[Form 25, {trans-3-(4-([4-({[(2S)-2-hydroxypropyl]amino}methyl)-6-(trifluoromethyl)pyridin-2-yl]oxy}piperidin-1-yl)-1-[4-(7H-pyrrolo[2,3-d]pyrimidin-4-yl)-1H-pyrazol-1-yl]cyclobutyl}acetonitrile]", "values": [{"measurement": "IC50", "setting": "[1]", "value": "< 0.01", "unit": "µM"}, {"measurement": "JAK2/JAK1", "setting": "JAK2 (a.a. 828-1132)", "value": ">10"}]}, {"smiles": "N#CC[C@]1(n2cc(-c3ncnc4[nH]ccc34)cn2)C[C@H](N2CCC(Oc3cc(CN4CC(O)C4)cc(C(F)(F)F)n3)CC2)C1", "note": "[Form 11, {trans-3-(4-{[4-[(3-hydroxyazetidin-1-yl)methyl]-6-(trifluoromethyl)pyridin-2-yl]oxy}piperidin-1-yl)-1-[4-(7H-pyrrolo[2,3-d]pyrimidin-4-yl)-1H-pyrazol-1-yl]cyclobutyl}acetonitrile]", "values": [{"measurement": "IC50", "setting": "[1]", "value": "< 0.01", "unit": "µM"}, {"measurement": "JAK2/JAK1", "setting": "JAK2 (a.a. 828-1132)", "value": ">10"}]}, {"smiles": "C[C@H](NC(=O)c1cc(F)c(N2CC(CC#N)(n3cc(-c4ncnc5[nH]ccc45)cn3)C2)cc1F)C(F)(F)F", "note": "[Form 16, 4-{3-(cyanomethyl)-3-[4-(7H-pyrrolo[2,3-d]pyrimidin-4-yl)-1H-pyrazol-1-yl]azetidin-1-yl}-2,5-difluoro-N-[(1S)-2,2,2-trifluoro-1-methylethyl]benzamide]", "values": [{"measurement": "IC50", "setting": "[1]", "value": "< 0.01", "unit": "µM"}, {"measurement": "JAK2/JAK1", "setting": "JAK2 (a.a. 828-1132)", "value": ">10"}]}, {"smiles": "N#CC[C@]1(n2cc(-c3ncnc4[nH]ccc34)cn2)C[C@H](N2CCC(Oc3cc(CCO)cc(C(F)(F)F)n3)CC2)C1", "note": "[Form 26, {trans-3-(4-{[4-(2-hydroxyethyl)-6-(trifluoromethyl)pyridin-2-yl]oxy}piperidin-1-yl)-1-[4-(7H-pyrrolo[2,3-d]pyrimidin-4-yl)-1H-pyrazol-1-yl]cyclobutyl}acetonitrile]", "values": [{"measurement": "IC50", "setting": "[1]", "value": "< 0.01", "unit": "µM"}, {"measurement": "JAK2/JAK1", "setting": "JAK2 (a.a. 828-1132)", "value": ">10"}]}, {"smiles": "CC(C)(O)c1cc(O[C@H]2CC[C@@H](N3CC(CC#N)(n4cc(-c5ncnc6[nH]ccc56)cn4)C3)CC2)nc(C(F)(F)F)c1", "note": "[Form 20, {1-(cis-4-{[4-(1-hydroxy-1-methylethyl)-6-(trifluoromethyl)pyridin-2-yl]oxy}cyclohexyl)-3-[4-(7H-pyrrolo[2,3-d]pyrimidin-4-yl)-1H-pyrazol-1-yl]azetidin-3-yl}acetonitrile]", "values": [{"measurement": "IC50", "setting": "[1]", "value": "< 0.01", "unit": "µM"}, {"measurement": "JAK2/JAK1", "setting": "JAK2 (a.a. 828-1132)", "value": ">10"}]}, {"smiles": "C[C@@H](O)CNCc1cc(OC2CCN([C@H]3C[C@](CC#N)(n4cc(-c5ncnc6[nH]ccc56)cn4)C3)CC2)nc(C(F)(F)F)c1", "note": "[Form 24, {trans-3-(4-{[4-({[(2R)-2-hydroxypropyl]amino}methyl)-6-(trifluoromethyl)pyridin-2-yl]oxy}piperidin-1-yl)-1-[4-(7H-pyrrolo[2,3-d]pyrimidin-4-yl)-1H-pyrazol-1-yl]cyclobutyl}acetonitrile]", "values": [{"measurement": "IC50", "setting": "[1]", "value": "< 0.01", "unit": "µM"}, {"measurement": "JAK2/JAK1", "setting": "JAK2 (a.a. 828-1132)", "value": ">10"}]}, {"smiles": "N#CC[C@]1(n2cc(-c3ncnc4[nH]ccc34)cn2)C[C@H](N2CCC(Oc3cc(CN4CCC[C@H]4CO)cc(C(F)(F)F)n3)CC2)C1", "note": "[Form 12, {trans-3-(4-{[4-{[(2S)-2-(hydroxymethyl)pyrrolidin-1-yl]methyl}-6-(trifluoromethyl)pyridin-2-yl]oxy}piperidin-1-yl)-1-[4-(7H-pyrrolo[2,3-d]pyrimidin-4-yl)-1H-pyrazol-1-yl]cyclobutyl}acetonitrile]", "values": [{"measurement": "IC50", "setting": "[1]", "value": "< 0.01", "unit": "µM"}, {"measurement": "JAK2/JAK1", "setting": "JAK2 (a.a. 828-1132)", "value": ">10"}]}]}
